Source: patent US9040545B2, “Heterocyclyl pyrazolopyrimidine analogues as selective JAK inhibitors” (Cellzome Limited, priority 2010, dated 2015)

Target: T1, Aurora B (Homo sapiens, UniProt Q96GD4)
T1 construct: cell lysates from Jurkat cells (ATCC TIB-152) used; endogenous in cells; host or cells: Jurkat cells (ATCC TIB-152), treated with pervanadate
Assay: Kinobeads assay, Aurora B
Type: binding
Conditions: for IC50: lysate of pervanadate-treated Jurkat cells, read-out: Inhibition values (IC50) Aur B

T1 sequence (Q96GD4 whole entry): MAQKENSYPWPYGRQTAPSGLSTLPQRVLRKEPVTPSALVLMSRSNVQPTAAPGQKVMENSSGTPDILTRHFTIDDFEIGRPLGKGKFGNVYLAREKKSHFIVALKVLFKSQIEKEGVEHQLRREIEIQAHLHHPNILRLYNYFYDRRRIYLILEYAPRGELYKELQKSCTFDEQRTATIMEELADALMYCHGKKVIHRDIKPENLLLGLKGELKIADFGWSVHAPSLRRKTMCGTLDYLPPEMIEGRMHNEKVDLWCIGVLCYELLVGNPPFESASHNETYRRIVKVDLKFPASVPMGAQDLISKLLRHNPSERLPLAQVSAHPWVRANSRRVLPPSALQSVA

Row | JAK3/AurB Fold Selectivity | IC50 [nM] | SMILES
1 | 10-50 Fold | ≥ 10000 | Cn1cc(Nc2ncc3cnn(Cc4cccc(N5CCC(F)(F)CC5)c4)c3n2)cn1 [Example 19, 1-(3-(4,4-Difluoropiperidin-1-yl)benzyl)-N-(1-methyl-1H-pyrazol-4-yl)-1H-pyrazolo[3,4-d]pyrimidin-6-amine]
2 | 10-50 Fold | 1000 to 10000 | CNCC1(Cn2cc(Nc3ncc4cnn(Cc5cccc(N6CCOCC6)c5)c4n3)cn2)COC1 [Example 41, N-(1-((3-((Methylamino)methyl)oxetan-3-yl)methyl)-1H-pyrazol-4-yl)-1-(3-morpholinobenzyl)-1H-pyrazolo[3,4-d]pyrimidin-6-amine]
3 | 10-50 Fold | 100 to 1000 | Cn1cc(Nc2ncc3cnn(Cc4cccc(CN5CCOCC5)c4)c3n2)cn1 [Example 7, N-(1-Methyl-1H-pyrazol-4-yl)-1-(3-(morpholinomethyl)benzyl)-1H-pyrazolo[3,4-d]pyrimidin-6-amine]
4 | 10-50 Fold | 100 to 1000 | Cn1cc(-c2cc(F)c(F)c(Cn3ncc4cnc(Nc5cnn(CCO)c5)nc43)c2)cn1 [Example 127, 2-(4-((1-(2,3-difluoro-5-(1-methyl-1H-pyrazol-4-yl)benzyl)-1H-pyrazolo[3,4-d]pyrimidin-6-yl)amino)-1H-pyrazol-1-yl)ethanol]
5 | >50 Fold | 1000 to 10000 | Cn1cc(Nc2ncc3cnn(Cc4cc(F)cc(N5CC6(COC6)C5)c4)c3n2)cn1 [Example 90, 1-(3-fluoro-5-(2-oxa-6-azaspiro[3.3]heptan-6-yl)benzyl)-N-(1-methyl-1H-pyrazol-4-yl)-1H-pyrazolo[3,4-d]pyrimidin-6-amine]
6 | 3-10 Fold | < 100 | CNCCCn1cc(Nc2ncc3cnn(Cc4cc(F)cc(N5CCOCC5=O)c4)c3n2)cn1 [Example 99, 4-(3-fluoro-5-((6-((1-(3-(methylamino)propyl)-1H-pyrazol-4-yl)amino)-1H-pyrazolo[3,4-d]pyrimidin-1-yl)methyl)phenyl)morpholin-3-one]
7 | >50 Fold | 1000 to 10000 | Cn1cc(Nc2ncc3cnn(Cc4cc(N5CCOCC5)cc(F)c4F)c3n2)cn1 [Example 37, 1-(2,3-Difluoro-5-morpholinobenzyl)-N-(1-methyl-1H-pyrazol-4-yl)-1H-pyrazolo[3,4-d]pyrimidin-6-amine]
8 | >50 Fold | 1000 to 10000 | CCCn1cc(-c2cccc(Cn3ncc4cnc(Nc5cnn(C)c5)nc43)c2)cn1 [Example 119, N-(1-methyl-1H-pyrazol-4-yl)-1-(3-(1-propyl-1H-pyrazol-4-yl)benzyl)-1H-pyrazolo[3,4-d]pyrimidin-6-amine]
9 | 10-50 Fold | 1000 to 10000 | CN(C)CC(O)Cn1cc(Nc2ncc3cnn(Cc4cccc(N5CCOCC5)c4)c3n2)cn1 (stereo not drawn) [Example 33, 1-(Dimethylamino)-3-(4-((1-(3-morpholinobenzyl)-1H-pyrazolo[3,4-d]pyrimidin-6-yl)amino)-1H-pyrazol-1-yl)propan-2-ol]
10 | >50 Fold | 1000 to 10000 | C[C@H]1COCCN1c1cccc(Cn2ncc3cnc(Nc4cnn(C)c4)nc32)c1 [Example 112, (S)-N-(1-methyl-1H-pyrazol-4-yl)-1-(3-(3-methylmorpholino)benzyl)-1H-pyrazolo[3,4-d]pyrimidin-6-amine]
11 | 10-50 Fold | 100 to 1000 | Cn1cc(-c2cccc(Cn3ncc4cnc(Nc5cnn(CCO)c5)nc43)c2F)cn1 [Example 124, 2-(4-((1-(2-fluoro-3-(1-methyl-1H-pyrazol-4-yl)benzyl)-1H-pyrazolo[3,4-d]pyrimidin-6-yl)amino)-1H-pyrazol-1-yl)ethanol]
12 | >50 Fold | 1000 to 10000 | Cn1cc(Nc2ncc3cnn(Cc4cc(F)cc(-c5cnn(C)c5)c4)c3n2)cn1 [Example 125, 1-(3-fluoro-5-(1-methyl-1H-pyrazol-4-yl)benzyl)-N-(1-methyl-1H-pyrazol-4-yl)-1H-pyrazolo[3,4-d]pyrimidin-6-amine]
13 | >50 Fold | 1000 to 10000 | Cn1cc(Nc2ncc3cnn(Cc4cccc(N5CC6(COC6)C5)c4F)c3n2)cn1 [Example 91, 1-(2-fluoro-3-(2-oxa-6-azaspiro[3.3]heptan-6-yl)benzyl)-N-(1-methyl-1H-pyrazol-4-yl)-1H-pyrazolo[3,4-d]pyrimidin-6-amine]
14 | >50 Fold | 100 to 1000 | OCCCn1cc(Nc2ncc3cnn(Cc4cccc(N5CCOCC5)c4)c3n2)cn1 [Example 18, 3-(4-((1-(3-Morpholinobenzyl)-1H-pyrazolo[3,4-d]pyrimidin-6-yl)amino)-1H-pyrazol-1-yl)propan-1-ol]
15 | >50 Fold | 1000 to 10000 | Cn1cc(Nc2ncc3cnn(Cc4cccc(-c5cnn(C)c5)c4F)c3n2)cn1 [Example 123, 1-(2-fluoro-3-(1-methyl-1H-pyrazol-4-yl)benzyl)-N-(1-methyl-1H-pyrazol-4-yl)-1H-pyrazolo[3,4-d]pyrimidin-6-amine]
16 | 10-50 Fold | 100 to 1000 | Cn1cc(Nc2ncc3cnn(Cc4cccc(N5CCOCC5)n4)c3n2)cn1 [Example 3, N-(1-Methyl-1H-pyrazol-4-yl)-1-((6-morpholinopyridin-2-yl)methyl)-1H-pyrazolo[3,4-d]pyrimidin-6-amine]
17 | >50 Fold | 1000 to 10000 | CC(CN(C)C)Cn1cc(Nc2ncc3cnn(Cc4cccc(N5CCOCC5)c4)c3n2)cn1 (stereo not drawn) [Example 32, N-(1-(3-(Dimethylamino)-2-methylpropyl)-1H-pyrazol-4-yl)-1-(3-morpholinobenzyl)-1H-pyrazolo[3,4-d]pyrimidin-6-amine]
18 | >50 Fold | 1000 to 10000 | O=C1CCCN1CCCn1cc(Nc2ncc3cnn(Cc4cccc(N5CCOCC5)c4)c3n2)cn1 [Example 30, 1-(3-(4-((1-(3-Morpholinobenzyl)-1H-pyrazolo[3,4-d]pyrimidin-6-yl)amino)-1H-pyrazol-1-yl)propyl)pyrrolidin-2-one]
19 | >50 Fold | 1000 to 10000 | Fc1cc(N2CCOCC2)c(F)c(Cn2ncc3cnc(Nc4cnn(CC5CCNC5)c4)nc32)c1F (stereo not drawn) [Example 94, N-(1-(pyrrolidin-3-ylmethyl)-1H-pyrazol-4-yl)-1-(2,3,6-trifluoro-5-morpholinobenzyl)-1H-pyrazolo[3,4-d]pyrimidin-6-amine]
20 | 10-50 Fold | 1000 to 10000 | Cn1cc(Nc2ncc3cnn(Cc4cccc(N5CCC(=O)CC5)c4)c3n2)cn1 [Example 108, 1-(3-((6-((1-methyl-1H-pyrazol-4-yl)amino)-1H-pyrazolo[3,4-d]pyrimidin-1-yl)methyl)phenyl)piperidin-4-one]
21 | 10-50 Fold | 1000 to 10000 | Cn1cc(Nc2ncc3cnn(Cc4cc(N5CCOCC5)ccc4F)c3n2)cn1 [Example 15, 1-(2-Fluoro-5-morpholinobenzyl)-N-(1-methyl-1H-pyrazol-4-yl)-1H-pyrazolo[3,4-d]pyrimidin-6-amine]
22 | 10-50 Fold | 1000 to 10000 | Cn1cc(Nc2ncc3cnn(Cc4cccc(N5CCCCC5)c4)c3n2)cn1 [Example 8, N-(1-Methyl-1H-pyrazol-4-yl)-1-(3-(piperidin-1-yl)benzyl)-1H-pyrazolo[3,4-d]pyrimidin-6-amine]
23 | 10-50 Fold | 1000 to 10000 | Cn1cc(Nc2ncc3cnn(Cc4cccc(-c5cnn(CCO)c5)c4)c3n2)cn1 [Example 121, 2-(4-(3-((6-((1-methyl-1H-pyrazol-4-yl)amino)-1H-pyrazolo[3,4-d]pyrimidin-1-yl)methyl)phenyl)-1H-pyrazol-1-yl)ethanol]
24 | 10-50 Fold | 1000 to 10000 | Cn1cc(Nc2ncc3cnn(Cc4cccc(N5CCC6(COC6)C5)c4)c3n2)cn1 [Example 104, 1-(3-(2-oxa-6-azaspiro[3.4]octan-6-yl)benzyl)-N-(1-methyl-1H-pyrazol-4-yl)-1H-pyrazolo[3,4-d]pyrimidin-6-amine]
25 | 10-50 Fold | 100 to 1000 | O=C1COCCN1c1cc(F)cc(Cn2ncc3cnc(Nc4cnn(C5CCNCC5)c4)nc32)c1 [Example 102, 4-(3-fluoro-5-((6-((1-(piperidin-4-yl)-1H-pyrazol-4-yl)amino)-1H-pyrazolo[3,4-d]pyrimidin-1-yl)methyl)phenyl)morpholin-3-one]
26 | 10-50 Fold | 100 to 1000 | O=C1COCCN1c1cc(F)cc(Cn2ncc3cnc(Nc4cnn(CCS(=O)(=O)NC5CC5)c4)nc32)c1 [Example 106, N-cyclopropyl-2-(4-((1-(3-fluoro-5-(3-oxomorpholino)benzyl)-1H-pyrazolo[3,4-d]pyrimidin-6-yl)amino)-1H-pyrazol-1-yl)ethanesulfonamide]
27 | >50 Fold | 100 to 1000 | Cn1cc(Nc2ncc3cnn(Cc4cc(F)cc(N5CCNCC5)c4)c3n2)cn1 [Example 92, 1-(3-fluoro-5-(piperazin-1-yl)benzyl)-N-(1-methyl-1H-pyrazol-4-yl)-1H-pyrazolo[3,4-d]pyrimidin-6-amine]
28 | >50 Fold | 100 to 1000 | OCCn1cc(Nc2ncc3cnn(Cc4cccc(N5CCOCC5)c4)c3n2)cn1 [Example 5, 2-(4-((1-(3-Morpholinobenzyl)-1H-pyrazolo[3,4-d]pyrimidin-6-yl)amino)-1H-pyrazol-1-yl)ethanol]
29 | 10-50 Fold | 100 to 1000 | Cn1cc(Nc2ncc3cnn(Cc4c(F)ccc(N5CCOCC5)c4F)c3n2)cn1 [Example 38, 1-(2,6-Difluoro-3-morpholinobenzyl)-N-(1-methyl-1H-pyrazol-4-yl)-1H-pyrazolo[3,4-d]pyrimidin-6-amine]
30 | 10-50 Fold | 100 to 1000 | CN(C)C(=O)CCn1cc(Nc2ncc3cnn(Cc4cccc(N5CCOCC5)c4)c3n2)cn1 [Example 16, N,N-Dimethyl-3-(4-((1-(3-morpholinobenzyl)-1H-pyrazolo[3,4-d]pyrimidin-6-yl)amino)-1H-pyrazol-1-yl)propanamide]
